Results on 2 substances are retold here after patent publication US7985832B2, “Antimicrobial cathelicidin peptides” (Kansas State University Research Foundation, priority 2005, dated 2011).

For one data set, the system named is skin S. aureus. Particulars: literature (Murakami et al.); cited from earlier work.
The test system of a further data set is chicken erythrocytes. Format: cell-based. On the procedure:
FIG. 9. Hemolytic Activity of Canine Cathelicidin. The assays were performed with chicken red blood cells as previously described (49). The data shown represent the mean of duplicate values from two independent experiments.
(§1) Hemolytic activity of K9CATH was determined (Skerlavag, FEBS Lett., 463:58 (1999); Yu et al., J. Pept. Res., 60:1 (2002)). Briefly, 4 mL of canine blood was collected in EDTA-containing blood collection tubes (Becton Dickinson, Franklin Lakes, N.J.). Whole blood was then centrifuged at 10,000×g for 1 minute at room temperature. Plasma was discarded (supernatant) and erythrocytes were washed twice with PBS, re-suspended to a 0.5% (vol/vol) solution in PBS, and 90 μL dispensed into 96-well microtiter plates. Different concentrations of K9CATH dissolved in 0.01% acetic acid were added in duplicate to dog cells and incubated at 37° C. for 2 hours. Following centrifugation at 8000×g for 10 minutes, supernatants were transferred to new 96-well microtiter plates and monitored by measuring the absorbance at 405 nm for released hemoglobin. Controls for 0 and 100% hemolysis consisted of cells suspended in PBS only and in 1.0% Triton X-100, respectively. Percentage of hemolysis (%) was calculated as [(OD415 nm, peptide solution−OD415 nm, PBS only)/(OD415 nm, 1% Triton X-100−OD 415 nm, PBS only)]×100. […]

The next data set has as its system dog erythrocytes. Format: cell-based. On the procedure: as §1, with “only)]×100. The N-terminal 18 amino acid segment of bovine myeloid antimicrobial peptide 28 (BMAP-28(1-18)) (Skerlavaj et al., J. Biol. Chem., 271:28375 (1996); Yu et al., J. Pept. Res., 60:1 (2002); Risso et al., Cell. Immunol., 189:107 (1998)) was used as a positive control.” for “only)]×100.”

The test system of the next data set is Pseudomonas aeruginosa. It counts as cell-based. An excerpt:
(§2) Microorganisms against which a polypeptide of the invention is active include prokaryotic and eukaryotic cells such as Gram-negative and Gram-positive bacteria, yeast and protozoa. Non-limiting examples include Listeria monocytogenes, Staphylococcus aureus, Escherichia coli, Klebsiella pneumoniae, Salmonella typhimurium, Pseudomonas aeruginosa, Proteus mirabilis, Salmonella enteritidis, Neisseria gonorrhoeae, Ureaplasma canigenitalium, Ureaplasma urealyticum, Candida albicans, Trichomonas vaginalis, Treponema pallidum or Chlamydia trachomatis, or a spoilage organism. […] MIC antimicrobial activity refers to complete inhibition of the growth of a microorganism, as judged by the naked eye, after a selected period of incubation. The method used to determine MIC is that set forth in Sang et al., Infection and Immunity, 2611-20 (May, 2005).
(§3) Microorganisms evaluated were: Candida albicans ATCC 11006 and 14053, Escherichia coli ATCC 25922, 700336, 700378, and BAA-457, Klebsiella pneumoniae ATCC 10031, Listeria monocytogenes ATCC 19155, Proteus mirabilis ATCC 12453, Pseudomonas aeruginosa ATCC 10145, Salmonella Enteritidis ATCC 13076, Salmonella Typhimurium ATCC 13311, Staphylococcus aureus ATCC 10832, Ureaplasma canigenitalium ATCC 51252, and Ureaplasma urealyticum ATCC 27619. C. albicans was grown overnight (35° C.) on potato dextrose agar and managed according to NCCSL standards (Pfaller et al., Manual NCCLS #M27-A2, 6th ed., Wayne, Pa. (2002)). U. canigenitalium and U urealyticum were stored at −20° C. in urea broth 10B (per ATCC specifications) and thawed at 5° C. the night prior to assay. All other bacteria were maintained on trypticase soy agar (Difco, Detroit, Mich.) plates at 37° C. Mid-logarithmic phase bacteria were grown by transferring single cell colonies into trypticase soy broth (Difco), followed by incubation and homogenization for 3 hours at 37° C. Bacterial pellets were obtained after centrifugation for 10 minutes at 4° C. at 900×g, and washed once, followed by suspension in 10 mM sodium phosphate buffer (PB, pH 7.4, [Na+]=17.83 mM). Initial bacterial concentrations were determined (Ferraro et al., Manual NCCLS #M7-A6, 6th ed., Wayne, Pa. (2003)). Initial bacterial populations of 10^8 CFU/mL were obtained at an optical density (OD) of 0.1 at 600 nm. C. albicans were suspended in 10 mM PB to a McFarland standard of 0.5 for an initial 10^8 CFU/ml following NCCLS standards (Pfaller et al., Manual NCCLS #M27-A2, 6th ed., Wayne, Pa. (2002)), except that the recommended 0.85% saline solution was replaced with 10 mM PB. All microbial serial dilutions were performed in 10 mM PB to obtain 10^3 CFU/mL working dilutions.
(§4) A modified broth microdilution method (Pfaller et al., Manual NCCLS #M27-A2, 6th ed., Wayne, Pa. (2002); Ferraro et al., Manual NCCLS #M7-A6, 6th ed., Wayne, Pa. (2003)) was used to determine the antimicrobial activity of K9CATH (Sang et al., Infect. Immun., 73:2611 (2005)). Briefly, 50 μL of the K9CATH working stocks were added to the wells of a microtiter plate in which 25 μL of 30 mM sodium PB (pH 7.4, [Na+]=53.49 mM), 25 μL H2O, and 50 μL of the microbial suspension had been previously combined. Microtiter plates were incubated at 37° C. for 2 hours in a shaking incubator (100 RPM), followed by the addition of 150 μL of the corresponding nutritive broth. Antimicrobial activity was determined by establishing the minimal inhibitory concentrations (MIC), defined as the lowest concentration in which microbial growth was prevented, as indicated by the lack of turbidity or color change in the medium (urea broth 10B) after 24 hours of incubation at 37° C. Treated gonorrheal suspension (50 μL) was spot-plated on chocolate agar, and the MIC was defined as the lowest concentration in which no colonies developed after 24 hours of incubation at 37° C. in 5% CO2. […]

The subject of another data set is Escherichia coli. Format: cell-based.
From the text: as §2, §3, §4

Another data set deals with Salmonella Typhimurium. Format: cell-based.
From the text: as §2, §3, §4

In a further data set the test system is Ureaplasma urealyticum. It counts as cell-based.
From the text: as §2, §3, §4

Another data set relates to Proteus mirabilis. Format: cell-based.
From the text: as §2, §3, §4

A further data set concerns Klebsiella pneumoniae. It counts as cell-based.
From the text: as §2, §3, §4

For another data set, the system named is Listeria monocytogenes. Format: cell-based.
From the text: as §2, §3, §4

A further data set deals with Salmonella Enteritidis. Format: cell-based.
From the text: as §2, §3, §4

Ends that are not written are not given here.

What is called MIC is the lowest concentration that inhibits growth of the organism.

In the case of “LL-37: human cathelicidin antimicrobial peptide (LLGDFFRKSKEKIGKEFKRIVQRIKDFLRNLVPRTES; Antibacterial peptide LL-37; UniProt P49913 134-170, looked up)”, the “concentration inhibiting skin S. aureus” value in the data set on skin S. aureus is greater than 64 µM.
Regarding “RLKELITTGGQKIGEKIRRIGQRIKDFFKNLQPREEKS [K9CATH]”, the “lower in vitro hemolytic activity compared to BMAP-18” value in the data set with chicken erythrocytes and in the data set with dog erythrocytes was 10-20 fold in each case. Moreover, the MIC against Pseudomonas aeruginosa amounted to 1.11 µM; with Escherichia coli, 1.11 µM; against Salmonella Typhimurium it was 1.11 µM; in the data set with Ureaplasma urealyticum it was 44.33 µM; against Proteus mirabilis it was 1.11 µM; in the data set with Klebsiella pneumoniae, 1.11 µM. The MIC in the data set with Listeria monocytogenes and against Salmonella Enteritidis was 0.44 µM each time.
